The test system of this test is Coptotermes formosanus Shiraki. Put plainly: Test Example 1: termite-killing test on treated filter paper. The test is classed as in vivo. The note with it: mortality class; 1 ml of a 500 ppm solution on filter paper, seven days after inoculation, triplicate group of 10 insects. On the procedure:
A filter paper was spread in a glass dish having a diameter of 9 cm, onto which was dropped 1 ml of a 500 ppm solution of the ant controller of the present invention. Then, the filter paper was inoculated with Coptotermes formosanus Shiraki. Seven days after the inoculation, percentage of dead insects was investigated, from which mortality was calculated. The test was carried out with triplicate group of 10 insects.
Turning to `CC(C(=NNC(=O)Nc1ccc(OC(F)(F)F)cc1)c1ccccc1)c1ccccc1` (mixture of isomers) [Compound 50], the Termite-killing effect entry is “A (100)”.
As to `O=C(NN=C(c1ccccc1)C(O)c1ccc(Cl)cc1)Nc1ccc(OC(F)(F)F)cc1` (racemic) [Compound 61], the Termite-killing effect result is reported as “A (100)”.
Take `N#Cc1ccc(C(O)C(=NNC(=O)Nc2ccc(Cl)cc2)c2ccccc2)cc1` (racemic) [Compound 62]: the Termite-killing effect result is listed as “A (100)”.
Regarding `N#Cc1ccc(C(O)C(=NNC(=O)Nc2ccc(OC(F)(F)F)cc2)c2ccccc2)cc1` (racemic) [Compound 63], the Termite-killing effect result is recorded as “A (100)”.
As for `CC(C(=NNC(=O)Nc1ccc(Cl)cc1)c1ccccc1)c1ccccc1` (racemic) [Compound 64], the Termite-killing effect result is “A (100)”.
As for `CC(C(=NNC(=S)Nc1ccc(OC(F)(F)F)cc1)c1ccccc1)c1ccccc1` (racemic) [Compound 65], the entry is “C (89-80)”; as for `COC(C(=NNC(=O)Nc1ccc(Cl)cc1)c1ccccc1)c1ccccc1` (racemic) [Compound 66], “A (100)”.
Then `COC(C(=NNC(=O)Nc1ccc(OC(F)(F)F)cc1)c1ccccc1)c1ccccc1` (racemic) [Compound 67], with “A (100)”.
As for `CC(C)OC(C(=NNC(=O)Nc1ccc(Cl)cc1)c1ccccc1)c1ccccc1` (racemic) [Compound 68], the entry is “A (100)”; as for `CC(C)OC(C(=NNC(=O)Nc1ccc(OC(F)(F)F)cc1)c1ccccc1)c1ccccc1` (racemic) [Compound 69], “B (99-90)”.
As to `CC(C)COC(C(=NNC(=O)Nc1ccc(Cl)cc1)c1ccccc1)c1ccccc1` (racemic) [Compound 70], the Termite-killing effect result is given as “A (100)”.
Then `CC(C)COC(C(=NNC(=O)Nc1ccc(OC(F)(F)F)cc1)c1ccccc1)c1ccccc1` (racemic) [Compound 71], with “A (100)”; and `CC(=O)OC(C(=NNC(=O)Nc1ccc(OC(F)(F)F)cc1)c1ccccc1)c1ccccc1` (racemic) [Compound 72], with “A (100)”.
Take `O=C(NN=C(c1ccccc1)C(OC(=O)c1ccccc1)c1ccccc1)Nc1ccc(OC(F)(F)F)cc1` (racemic) [Compound 73]: the Termite-killing effect result is listed as “A (100)”.
With `CN(N=C(c1ccccc1)C(O)c1ccccc1)C(=O)Nc1ccc(Cl)cc1` (racemic) [Compound 74], the Termite-killing effect entry is “A (100)”.
For the compound `CN(N=C(c1ccccc1)C(O)c1ccccc1)C(=O)Nc1ccc(OC(F)(F)F)cc1` (racemic) [Compound 75], the Termite-killing effect entry is “A (100)”.
Then `O=C(NNC(Cc1ccccc1)c1ccccc1)Nc1ccc(Cl)cc1` (racemic) [Compound 84], with “A (100)”; and `O=C(NNC(Cc1ccccc1)c1ccccc1)Nc1ccc(OC(F)(F)F)cc1` (racemic) [Compound 85], with “C (89-80)”.
Then `O=C(NNC(Cc1ccc(Cl)cc1)c1ccccc1)Nc1ccc(OC(F)(F)F)cc1` (racemic) [Compound 86], with “A (100)”; and `N#Cc1ccc(CC(NNC(=O)Nc2ccc(OC(F)(F)F)cc2)c2ccccc2)cc1` (racemic) [Compound 87], with “C (89-80)”; and `O=C(NNC(Cc1ccc([N+](=O)[O-])cc1)c1ccccc1)Nc1ccc(OC(F)(F)F)cc1` (racemic) [Compound 88], with “A (100)”.
As to `O=C(NNC(Cc1ccc(Cl)cc1)c1cccc(F)c1)Nc1ccc(OC(F)(F)F)cc1` (racemic) [Compound 89], the Termite-killing effect result is reported as “B (99-90)”.
With `O=C(NNC(Cc1ccc(Cl)cc1)c1cccc(Cl)c1)Nc1ccc(OC(F)(F)F)cc1` (racemic) [Compound 90], the Termite-killing effect result was “A (100)”.
Then `N#Cc1ccc(CC(NNC(=O)Nc2ccc(OC(F)(F)F)cc2)c2cccc(C(F)(F)F)c2)cc1` (single isomer, unassigned) [Compound 117], with “A (100)”.
Then `N#Cc1ccc(CC(NNC(=O)Nc2ccc(OC(F)(F)F)cc2)c2cccc(C(F)(F)F)c2)cc1` (single isomer, unassigned) [Compound 118], with “D (79-50)”.
As for `O=C(NN=C(Cc1ccccc1)c1ccccc1)Nc1ccc(Cl)cc1` [Compound 1], the entry is “A (100)”.
For `O=C(NN=C(Cc1ccccc1)c1ccccc1)Nc1ccc(OC(F)(F)F)cc1` [Compound 2], the Termite-killing effect result is listed as “B (99-90)”.
Consider `O=C(NN=C(Cc1ccc(Cl)cc1)c1ccccc1)Nc1ccc(Cl)cc1` [Compound 3], for which the Termite-killing effect result is “A (100)”.
For the compound `O=C(NN=C(Cc1ccc(Cl)cc1)c1ccccc1)Nc1ccc(OC(F)(F)F)cc1` [Compound 4], the Termite-killing effect result is “A (100)”.
With `N#Cc1ccc(CC(=NNC(=O)Nc2ccc(Cl)cc2)c2ccccc2)cc1` [Compound 5], the Termite-killing effect result is “A (100)”.
Turning to `N#Cc1ccc(CC(=NNC(=S)Nc2ccc(Cl)cc2)c2ccccc2)cc1` [Compound 6], the Termite-killing effect result was “A (100)”.
Consider `N#Cc1ccc(CC(=NNC(=S)Nc2ccc(OC(F)(F)F)cc2)c2ccccc2)cc1` [Compound 7], for which the Termite-killing effect entry was “A (100)”.
As for `O=C(NN=C(Cc1ccc([N+](=O)[O-])cc1)c1ccccc1)Nc1ccc(Cl)cc1` [Compound 10], the entry is “A (100)”.
Consider `O=[N+]([O-])c1ccc(CC(=NNC(=S)Nc2ccc(Cl)cc2)c2ccccc2)cc1` [Compound 11], for which the Termite-killing effect entry is listed as “A (100)”.
Consider `O=C(NN=C(Cc1ccc([N+](=O)[O-])cc1)c1ccccc1)Nc1ccc(OC(F)(F)F)cc1` [Compound 12], for which the Termite-killing effect entry is recorded as “A (100)”.
Then `O=[N+]([O-])c1ccc(CC(=NNC(=S)Nc2ccc(OC(F)(F)F)cc2)c2ccccc2)cc1` [Compound 13], with “A (100)”; and `O=C(NN=C(Cc1ccc([N+](=O)[O-])cc1)c1ccccc1)Nc1ccc(SC(F)(F)F)cc1` [Compound 14], with “A (100)”; and `O=C(NN=C(Cc1ccccc1)c1cccc(Cl)c1)Nc1ccc(OC(F)(F)F)cc1` [Compound 15], with “B (99-90)”.
Then `O=C(NN=C(Cc1ccc(Cl)cc1)c1cccc(Cl)c1)Nc1ccc(OC(F)(F)F)cc1` [Compound 16], with “C (89-80)”; and `N#Cc1ccc(CC(=NNC(=O)Nc2ccc(Cl)cc2)c2cccc(Cl)c2)cc1` [Compound 17], with “A (100)”.
Then `N#Cc1ccc(CC(=NNC(=S)Nc2ccc(OC(F)(F)F)cc2)c2cccc(Cl)c2)cc1` [Compound 20], with “A (100)”; and `N#Cc1ccc(CC(=NNC(=O)Nc2ccc(SC(F)(F)F)cc2)c2cccc(Cl)c2)cc1` [Compound 21], with “A (100)”.
Regarding `N#Cc1ccc(CC(=NNC(=O)Nc2ccc([S+]([O-])C(F)(F)F)cc2)c2cccc(Cl)c2)cc1` (centres unmarked) [Compound 22], the Termite-killing effect result is listed as “B (99-90)”.
As to `N#Cc1ccc(CC(=NNC(=O)Nc2ccc(S(=O)(=O)C(F)(F)F)cc2)c2cccc(Cl)c2)cc1` [Compound 23], the Termite-killing effect entry is given as “A (100)”.
`O=C(NN=C(Cc1ccccc1)c1cccc(Br)c1)Nc1ccc(Cl)cc1` [Compound 24]: the Termite-killing effect result was “C (89-80)”.
Then `O=C(NN=C(Cc1ccccc1)c1cccc(Br)c1)Nc1ccc(OC(F)(F)F)cc1` [Compound 25], with “D (79-50)”; and `N#Cc1ccc(CC(=NNC(=O)Nc2ccc(Cl)cc2)c2cccc(Br)c2)cc1` [Compound 26], with “A (100)”.
For the compound `N#Cc1ccc(CC(=NNC(=O)Nc2ccc(OC(F)(F)F)cc2)c2cccc(Br)c2)cc1` [Compound 27], the Termite-killing effect entry is listed as “A (100)”.
Regarding `N#Cc1ccc(CC(=NNC(=O)Nc2ccc(SC(F)(F)F)cc2)c2cccc(Br)c2)cc1` [Compound 28], the Termite-killing effect entry is reported as “C (89-80)”.
For the compound `N#Cc1ccc(CC(=NNC(=O)Nc2ccc([S+]([O-])C(F)(F)F)cc2)c2cccc(Br)c2)cc1` (centres unmarked) [Compound 29], the Termite-killing effect entry is “C (89-80)”.
As for `N#Cc1ccc(CC(=NNC(=O)Nc2ccc(S(=O)(=O)C(F)(F)F)cc2)c2cccc(Br)c2)cc1` [Compound 30], the entry is “A (100)”; as for `O=C(NN=C(Cc1ccccc1)c1cccc(F)c1)Nc1ccc(Cl)cc1` [Compound 31], “A (100)”; as for `O=C(NN=C(Cc1ccccc1)c1cccc(F)c1)Nc1ccc(OC(F)(F)F)cc1` [Compound 32], “A (100)”.
As for `O=C(NN=C(Cc1ccc(Cl)cc1)c1cccc(F)c1)Nc1ccc(OC(F)(F)F)cc1` [Compound 33], the entry is “C (89-80)”; as for `O=C(NN=C(Cc1ccc(Cl)cc1)c1cccc(F)c1)Nc1ccc(Cl)cc1` [Compound 34], “A (100)”.
Then `N#Cc1ccc(CC(=NNC(=O)Nc2ccc(OC(F)(F)F)cc2)c2cccc(F)c2)cc1` [Compound 35], with “A (100)”; and `N#Cc1ccc(CC(=NNC(=O)Nc2ccc(Cl)cc2)c2cccc(I)c2)cc1` [Compound 36], with “B (99-90)”.
On to `N#Cc1ccc(CC(=NNC(=O)Nc2ccc(OC(F)(F)F)cc2)c2cccc(I)c2)cc1` [Compound 37], for which the Termite-killing effect entry was “A (100)”.
In the case of `Cc1cccc(C(Cc2ccccc2)=NNC(=O)Nc2ccc(Cl)cc2)c1` [Compound 38], the Termite-killing effect result was “B (99-90)”.
As for `Cc1cccc(C(Cc2ccccc2)=NNC(=O)Nc2ccc(OC(F)(F)F)cc2)c1` [Compound 39], the entry is “A (100)”.
As for `Cc1cccc(C(Cc2ccc(C#N)cc2)=NNC(=O)Nc2ccc(Cl)cc2)c1` [Compound 40], the Termite-killing effect result is “D (79-50)”.
Then `Cc1cccc(C(Cc2ccc(C#N)cc2)=NNC(=O)Nc2ccc(OC(F)(F)F)cc2)c1` [Compound 41], with “A (100)”.

(Values after patent US8361487B1, “Ant controllers and method for application thereof” (BASF Aktiengesellschaft, priority 1999, dated 2013).)
